According to PubChem BioAssay AID248 (DTP/NCI, 2004):
“And” between values parts separate entries of the source, which are not always exact repeats. Equal entries are not always repeated. Inconclusive results and toxic doses are left out. No stated cut-off is given here; in the data, active means T/C of 150% or more; inactive means T/C below 125%.

System: L1210 leukemia ip in BDF1 mice, survival T/C
Test: NCI In Vivo Anticancer Drug Screen. Data for tumor model L1210 Leukemia (intraperitoneal) in B6D2F1 (BDF1) mice
Details: endpoint: mean survival time, higher = longer survival
Summary of the method: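 Transplantable tumor model; survival measured in treated vs vehicle control mice. Value = treated/control.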

[1] = dose: 100.0 mg/kg/injection, schedule: Q04DX003 (ip), vehicle: saline
[2] = dose: 200.0 mg/kg/injection, schedule: Q04DX003 (ip), vehicle: saline
[3] = dose: 400.0 mg/kg/injection, schedule: Q04DX003 (ip), vehicle: saline
[4] = dose: 100.0 mg/kg/injection, schedule: Q01DX001 (ip), vehicle: saline
[5] = dose: 200.0 mg/kg/injection, schedule: Q01DX001 (ip), vehicle: saline
[6] = dose: 400.0 mg/kg/injection, schedule: Q01DX001 (ip), vehicle: saline
[7] = dose: 50.0 mg/kg/injection, schedule: Q01DX001 (ip), vehicle: saline

Measured: T/C

CCN1C=C/C(=C\C=C/c2cc[n+](CC)c3ccccc23)c2ccccc21
inactive: dose: 0.05 mg/kg/injection, schedule: Q01DX Z (ip), vehicle: methylcellulose (MC) 96 % of control | dose: 0.06 mg/kg/injection, schedule: Q01DX Z (ip), vehicle: methylcellulose (MC) 106 % of control and 121 % of control | dose: 0.08 mg/kg/injection, schedule: Q01DX Z (ip), vehicle: methylcellulose (MC) 104 % of control | dose: 0.1 mg/kg/injection, schedule: Q01DX Z (ip), vehicle: methylcellulose (MC) 107 % of control | dose: 0.11 mg/kg/injection, schedule: Q01DX Z (ip), vehicle: methylcellulose (MC) 121 % of control | dose: 0.15 mg/kg/injection, schedule: Q01DX Z (ip), vehicle: methylcellulose (MC) 119 % of control | dose: 0.3 mg/kg/injection, schedule: Q01DX Z (ip), vehicle: methylcellulose (MC) 113 % of control and 120 % of control and 121 % of control | dose: 0.33 mg/kg/injection, schedule: Q01DX009 (ip), vehicle: saline with Tween-80 118 % of control | dose: 0.33 mg/kg/injection, schedule: Q03HX024 (ip), vehicle: saline with Tween-80 109 % of control | dose: 0.4 mg/kg/injection, schedule: Q01DX Z (ip), vehicle: methylcellulose (MC) 112 % of control | dose: 0.44 mg/kg/injection, schedule: Q01DX009 (ip), vehicle: saline with Tween-80 121 % of control | dose: 0.48 mg/kg/injection, schedule: Q01DX009 (ip), vehicle: saline with Tween-80 112 % of control | dose: 0.5 mg/kg/injection, schedule: Q01DX009 (ip), vehicle: saline 101 % of control | dose: 0.5 mg/kg/injection, schedule: Q04DX003 (ip), vehicle: saline sonified 107 % of control | dose: 0.67 mg/kg/injection, schedule: Q01DX001 (ip), vehicle: saline with Tween-80 105 % of control | dose: 0.67 mg/kg/injection, schedule: Q04DX003 (ip), vehicle: saline with Tween-80 105 % of control | dose: 0.7 mg/kg/injection, schedule: Q01DX Z (ip), vehicle: methylcellulose (MC) 96 % of control | dose: 0.74 mg/kg/injection, schedule: Q01DX009 (ip), vehicle: saline with Tween-80 114 % of control and 118 % of control | dose: 1.0 mg/kg/injection, schedule: Q01DX001 (ip), vehicle: saline with Tween-80 105 % of control | dose: 1.0 mg/kg/injection, schedule: Q01DX009 (ip), vehicle: saline 107 % of control | dose: 1.0 mg/kg/injection, schedule: Q01DX Z (ip), vehicle: methylcellulose (MC) 100 % of control | dose: 1.0 mg/kg/injection, schedule: Q04DX003 (ip), vehicle: saline sonified 110 % of control | dose: 1.1 mg/kg/injection, schedule: Q01DX009 (ip), vehicle: saline with Tween-80 105 % of control | dose: 1.5 mg/kg/injection, schedule: Q01DX001 (ip), vehicle: saline with Tween-80 112 % of control | dose: 1.5 mg/kg/injection, schedule: Q01DX Z (ip), vehicle: methylcellulose (MC) 108 % of control | dose: 1.5 mg/kg/injection, schedule: Q04DX003 (ip), vehicle: saline with Tween-80 113 % of control | dose: 2.0 mg/kg/injection, schedule: Q04DX003 (ip), vehicle: saline sonified 118 % of control | dose: 2.2 mg/kg/injection, schedule: Q01DX001 (ip), vehicle: saline with Tween-80 110 % of control | dose: 2.2 mg/kg/injection, schedule: Q04DX003 (ip), vehicle: saline with Tween-80 98 % of control | dose: 3.3 mg/kg/injection, schedule: Q01DX001 (ip), vehicle: saline with Tween-80 100 % of control and 88 % of control | dose: 7.4 mg/kg/injection, schedule: Q01DX001 (ip), vehicle: saline with Tween-80 105 % of control | dose: 67.0 micrograms/kg/injection, schedule: Q03HX024 (ip), vehicle: saline with Tween-80 102 % of control | dose: 100.0 micrograms/kg/injection, schedule: Q03HX024 (ip), vehicle: saline with Tween-80 101 % of control | dose: 150.0 micrograms/kg/injection, schedule: Q03HX024 (ip), vehicle: saline with Tween-80 104 % of control | dose: 220.0 micrograms/kg/injection, schedule: Q03HX024 (ip), vehicle: saline with Tween-80 97 % of control | dose: 330.0 micrograms/kg/injection, schedule: Q03HX024 (ip), vehicle: saline with Tween-80 102 % of control

CCOC(/C=C(\C)C(C)=O)OCC
inactive: [1] 97 % of control | [2] 98 % of control | [3] 95 % of control

CCOC(=O)C(C#N)=C([SH2+])[SH2+].CCOC(=O)C(C#N)=C([SH2+])[SH2+].[Cu+2].c1ccc(C[P+](c2ccccc2)(c2ccccc2)c2ccccc2)cc1
inactive: [4] 92 % of control | [1] 102 % of control | [5] 87 % of control | [2] 97 % of control | [6] 89 % of control | [3] 91 % of control

Cc1cc(/C=N/NC(=O)CCCC(=O)N/N=C/c2cc(C)n(-c3ccccc3)c2C)c(C)n1-c1ccccc1
inactive: [7] 98 % of control | [4] 93 % of control | [5] 95 % of control | [6] 89 % of control

CC(=O)Nc1cccc(OCCOc2ccc([N+](=O)[O-])cc2)c1
inactive: dose: 100.0 mg/kg/injection, schedule: Q01DX001 (ip), vehicle: carboxymethylcellulose (CMC) 92 % of control | dose: 200.0 mg/kg/injection, schedule: Q01DX001 (ip), vehicle: carboxymethylcellulose (CMC) 92 % of control | dose: 400.0 mg/kg/injection, schedule: Q01DX001 (ip), vehicle: carboxymethylcellulose (CMC) 90 % of control

O=[N+]([O-])c1cccc(OCCCCOc2ccccc2)c1
inactive: dose: 100.0 mg/kg/injection, schedule: Q01DX009 (ip), vehicle: Klucel (hydroxypropylcellulose) (HPC) 98 % of control | [1] 100 % of control | dose: 200.0 mg/kg/injection, schedule: Q01DX009 (ip), vehicle: Klucel (hydroxypropylcellulose) (HPC) 101 % of control | [2] 101 % of control | dose: 400.0 mg/kg/injection, schedule: Q01DX009 (ip), vehicle: Klucel (hydroxypropylcellulose) (HPC) 102 % of control | [3] 95 % of control

C[CH2][Sn]([CH2]C)([O]S(=O)(=O)CC12CCC(CC1=O)C2(C)C)[O]S(=O)(=O)CC12CCC(CC1=O)C2(C)C
inactive: dose: 3.12 mg/kg/injection, schedule: Q01DX009 (ip), vehicle: saline 106 % of control | dose: 5.5 mg/kg/injection, schedule: Q01DX009 (ip), vehicle: saline 109 % of control | dose: 6.25 mg/kg/injection, schedule: Q01DX009 (ip), vehicle: saline 106 % of control and 107 % of control | dose: 6.25 mg/kg/injection, schedule: Q04DX003 (ip), vehicle: saline 112 % of control | dose: 8.2 mg/kg/injection, schedule: Q01DX009 (ip), vehicle: saline 118 % of control | dose: 11.0 mg/kg/injection, schedule: Q04DX003 (ip), vehicle: saline 113 % of control | dose: 12.5 mg/kg/injection, schedule: Q01DX009 (ip), vehicle: saline 106 % of control and 120 % of control | dose: 12.5 mg/kg/injection, schedule: Q04DX002 (ip), vehicle: saline 104 % of control | dose: 12.5 mg/kg/injection, schedule: Q04DX003 (ip), vehicle: saline 114 % of control | dose: 16.0 mg/kg/injection, schedule: Q04DX003 (ip), vehicle: saline 104 % of control | dose: 18.0 mg/kg/injection, schedule: Q01DX009 (ip), vehicle: saline 117 % of control | dose: 22.0 mg/kg/injection, schedule: Q04DX002 (ip), vehicle: saline 107 % of control | dose: 25.0 mg/kg/injection, schedule: Q01DX001 (ip), vehicle: saline 109 % of control | dose: 25.0 mg/kg/injection, schedule: Q01DX009 (ip), vehicle: saline 112 % of control and 115 % of control and 120 % of control | dose: 25.0 mg/kg/injection, schedule: Q04DX002 (ip), vehicle: saline 106 % of control | dose: 25.0 mg/kg/injection, schedule: Q04DX003 (ip), vehicle: saline 112 % of control and 117 % of control | dose: 35.0 mg/kg/injection, schedule: Q04DX002 (ip), vehicle: saline 116 % of control | dose: 35.0 mg/kg/injection, schedule: Q04DX003 (ip), vehicle: saline 113 % of control | dose: 45.0 mg/kg/injection, schedule: Q01DX001 (ip), vehicle: saline 120 % of control | [7] 114 % of control | dose: 50.0 mg/kg/injection, schedule: Q04DX003 (ip), vehicle: saline 102 % of control | dose: 55.0 mg/kg/injection, schedule: Q04DX003 (ip), vehicle: saline 112 % of control
